Results reported in patent US20230019280A1, “SUBSTITUTED ISOINDOLONYL 2,2'-BIP[…], ANALOGUES THEREOF, AND METHODS USING SAME” (priority 2019, published 2023).
Where two headings read alike, the source gives them in different places.

Tested on: HBsAg
Experiment: HBsAg assay (inhibition of HBsAg in HepG2.2.15 cells)
Assay type: cell-based, hepatitis B virus
Details: supernatant HBsAg by CLIA at day 6 after exposure of compounds
Method: Inhibition of HBsAg was determined in HepG2.2.15 cells. Cells were maintained in culture medium containing 10% fetal calf serum, […], Glutamine, penicillin/streptomycin. Cells were seeded in 96-well collagen-coated plate at a density of 30,000 cells/well. Serially diluted compounds were added to cells next day at the final DMSO concentration of 0.5%. Cells were incubated with compounds for 2-3 days, after which medium was removed. Fresh medium containing compounds was added to cells for additional 3-4 days. At day 6 after exposure of compounds, supernatant was collected, the HBsAg immunoassay (microplate-based chemiluminescence immunoassay kits, CLIA, Autobio Diagnosics Co., Zhengzhou, China, Catalog #CL0310-2) was used to determine the level of HBsAg according to manufactory instruction. Dose-response curves were generated and the EC50 value (effective concentrations that achieved 50% inhibitory effect) were determined using XLfit software. In addition, cells were seeded at a density of 5,000 cells/well for determination of cell viability in the presence and absence of compounds by using CellTiter-Glo reagent (Promega).

[1] = Hepatitis B virus, HepG2.2.15, 144 h, read-out: sAg EC50, HepG2.2.15 cells
[2] = read-out: sAg EC50, HepG2.2.15 cells

| Structure (SMILES) | EC50 [1] [nM] | EC50 [2] [nM] |
| --- | --- | --- |
| CCC1c2cc(OC)c(OC)cc2C(=O)N1c1cc(-c2ncccn2)ncn1 (centres unmarked) [Example 37, 2-([2,4′-Bipyrimidin]-6′-yl)-3-ethyl-5,6-dimethoxyisoindolin-1-one] | 290 |  |
| CCC1c2cc(F)c(OC)cc2C(=O)N1c1nc(-c2ncccn2)ncc1F (single isomer, unassigned) [Example 74, 3-Ethyl-5-fluoro-2-(5-fluoro-[2,2′-bipyrimidin]-4-yl)-6-methoxyisoindolin-1-one] |  | 300 |
| CCC1c2cc(OC)c(F)cc2C(=O)N1c1ccnc(-c2ncccn2)n1 (single isomer, unassigned) [Example 52, 2-([2,2′-Bipyrimidin]-4-yl)-3-ethyl-6-fluoro-5-methoxyisoindolin-1-one] |  | 400 |
| CCC1c2cc(OC)c(OC)cc2C(=O)N1c1nc(-c2ncccn2)nc(C)c1C (centres unmarked) [Example 24, 2-(5,6-Dimethyl-[2,2′-bipyrimidin]-4-yl)-3-ethyl-5,6-dimethoxyisoindolin-1-one] | 10000 |  |
| CCC1c2cc(OC)c(OC)cc2C(=O)N1c1cccc(-c2ncccn2)n1 (centres unmarked) [Example 31, 3-Ethyl-5,6-dimethoxy-2-(6-(pyrimidin-2-yl)pyridin-2-yl)isoindolin-1-one] | 7000 |  |
| CCC1c2cc(OC)c(OC)cc2C(=O)N1c1ccnc(-c2ncccn2)n1 (single isomer, unassigned) [Example 2, 2-([2,2′-Bipyrimidin]-4-yl)-3-ethyl-5,6-dimethoxyisoindolin-1-one] |  | 13 |
| CCC1c2cc(OC)c(OC)cc2C(=O)N1c1ccnc(-c2ncccn2)c1 (centres unmarked) [Example 32, 3-Ethyl-5,6-dimethoxy-2-(2-(pyrimidin-2-yl)pyridin-4-yl)isoindolin-1-one] | 20 |  |
| CCC1c2cc(OC)c(OC)cc2C(=O)N1c1ccnc(-c2ncc(F)cn2)n1 (single isomer, unassigned) [Example 73, 3-Ethyl-2-(5′-fluoro-[2,2′-bipyrimidin]-4-yl)-5,6-dimethoxyisoindolin-1-one] |  | 1000 |
| COc1cc2c(cc1OC)C(C(C)(C)C)N(c1ccnc(-c3ncccn3)n1)C2=O (centres unmarked) [Example 45, 2-([2,2′-Bipyrimidin]-4-yl)-3-(tert-butyl)-5,6-dimethoxyisoindolin-1-one] | 3 |  |
| COc1cc2c(cc1OC)C(C1CCOCC1)N(c1ccnc(-c3ncccn3)n1)C2=O (centres unmarked) [Example 29, 2-([2,2′-Bipyrimidin]-4-yl)-5,6-dimethoxy-3-(tetrahydro-2H-pyran-4-yl)isoindolin-1-one] | 30 |  |
| CCC1c2cc(F)c(F)cc2C(=O)N1c1cnc(-c2ncccn2)nc1 (single isomer, unassigned) [Example 59, 2-([2,2′-Bipyrimidin]-5-yl)-3-ethyl-5,6-difluoroisoindolin-1-one] | 10000 |  |
| COc1cc2c(cc1OC)C1(CC1)N(c1ccnc(-c3ncccn3)n1)C2=O [Example 46, 2′-([2,2′-Bipyrimidin]-4-yl)-5′,6′-dimethoxyspiro[cyclopropane-1,1′-isoindolin]-3′-one] | 240 |  |
| COc1cc2c(cc1OC)C(c1ccc(C)nc1)N(c1ccnc(-c3ncccn3)n1)C2=O (single isomer, unassigned) [Example 18, 2-([2,2′-Bipyrimidin]-4-yl)-5,6-dimethoxy-3-(6-methylpyridin-3-yl)isoindolin-1-one] |  | 10 |
| COc1cccc(C2c3cc(OC)c(OC)cc3C(=O)N2c2ccnc(-c3ncccn3)n2)c1 (single isomer, unassigned) [Example 13, 2-([2,2′-Bipyrimidin]-4-yl)-5,6-dimethoxy-3-(3-methoxyphenyl)isoindolin-1-one] |  | 1000 |
| CCC1c2cc(F)c(OC)cc2C(=O)N1c1nc(-c2ncccn2)ncc1F (single isomer, unassigned) [Example 55, 3-Ethyl-5-fluoro-2-(5-fluoro-2-pyrimidin-2-yl-pyrimidin-4-yl)-6-methoxy-isoindolin-1-one] |  | 50 |
| CCC1c2cc(OC)c(OC)cc2C(=O)N1c1cc(F)nc(-c2ncccn2)n1 (single isomer, unassigned) [Example 68, 3-Ethyl-2-(6-fluoro-[2,2′-bipyrimidin]-4-yl)-5,6-dimethoxyisoindolin-1-one] |  | 1000 |
| COc1cc2c(cc1OC)C(c1ccccc1)N(c1ccnc(-c3ncccn3)n1)C2=O (single isomer, unassigned) [Example 44, 2-([2,2′-Bipyrimidin]-4-yl)-5,6-dimethoxy-3-phenylisoindolin-1-one] |  | 160 |
| COc1cc2c(cc1OC)C(c1ccccc1)N(c1ccnc(-c3ncccn3)n1)C2=O (single isomer, unassigned) [Example 43, 2-([2,2′-Bipyrimidin]-4-yl)-5,6-dimethoxy-3-phenylisoindolin-1-one] |  | 1 |

| Structure (SMILES) | EC50 [1] [nM] | EC50 [2] [nM] |
| --- | --- | --- |
| CCC1c2cc(OC)c(Cl)cc2C(=O)N1c1ccnc(-c2ncccn2)n1 (single isomer, unassigned) [Example 6, 2-([2,2′-Bipyrimidin]-4-yl)-6-chloro-3-ethyl-5-methoxyisoindolin-1-one] |  | 14 |
| CCC1c2cc(F)c(OC)cc2C(=O)N1c1nc(-c2ncccn2)ncc1OC (centres unmarked) [Example 25, 3-Ethyl-5-fluoro-6-methoxy-2-(5-methoxy-[2,2′-bipyrimidin]-4-yl)isoindolin-1-one] | 10000 |  |
| CCCC1c2cc(OC)c(OC)cc2C(=O)N1c1ccnc(-c2ncccn2)n1 (centres unmarked) [Example 38, 2-([2,2′-Bipyrimidin]-4-yl)-5,6-dimethoxy-3-propylisoindolin-1-one] | 10 |  |
| CCC1c2cc(OC)c(C)cc2C(=O)N1c1ccnc(-c2ncccn2)n1 (single isomer, unassigned) [Example 5, 2-([2,2′-Bipyrimidin]-4-yl)-3-ethyl-5-methoxy-6-methylisoindolin-1-one] |  | 1000 |
| CCC1c2cc(OC)c(OC)cc2C(=O)N1c1ccnc(-c2ncccn2)c1 (single isomer, unassigned) [Example 34, 3-Ethyl-5,6-dimethoxy-2-(2-(pyrimidin-2-yl)pyridin-4-yl)isoindolin-1-one] |  | 62 |
| CCC1c2cc(OC)c(OC)cc2C(=O)N1c1cc(F)nc(-c2ncccn2)n1 (single isomer, unassigned) [Example 69, 3-Ethyl-2-(6-fluoro-[2,2′-bipyrimidin]-4-yl)-5,6-dimethoxyisoindolin-1-one] |  | 49000 |
| COc1cccc(C2c3cc(OC)c(OC)cc3C(=O)N2c2ccnc(-c3ncccn3)n2)c1 (single isomer, unassigned) [Example 12, 2-([2,2′-Bipyrimidin]-4-yl)-5,6-dimethoxy-3-(3-methoxyphenyl)isoindolin-1-one] |  | 5 |
| CCC1c2c(F)cc(Cl)cc2C(=O)N1c1ccnc(-c2ncccn2)n1 (single isomer, unassigned) [Example 9, 2-([2,2′-Bipyrimidin]-4-yl)-6-chloro-3-ethyl-4-fluoroisoindolin-1-one] |  | 5000 |
| CCC1c2cc(OC)c(OC)cc2C(=O)N1c1ccnc(-c2ncccn2)n1 (single isomer, unassigned) [Example 3, 2-([2,2′-Bipyrimidin]-4-yl)-3-ethyl-5,6-dimethoxyisoindolin-1-one] |  | 1000 |
| CCC1c2cc(F)c(OC(C)C)cc2C(=O)N1c1nc(-c2ncccn2)ncc1F (single isomer, unassigned) [Example 57, 3-Ethyl-5-fluoro-2-(5-fluoro-[2,2′-bipyrimidin]-4-yl)-6-isopropoxyisoindolin-1-one] | 110 |  |
| CCC1c2cc(OC)c(C)cc2C(=O)N1c1ccnc(-c2ncccn2)n1 (single isomer, unassigned) [Example 4, 2-([2,2′-Bipyrimidin]-4-yl)-3-ethyl-5-methoxy-6-methylisoindolin-1-one] |  | 8 |
| CCC1c2cc(OC)c(OC)cc2C(=O)N1c1ccnc(-c2ncc(F)cn2)n1 (single isomer, unassigned) [Example 72, 3-Ethyl-2-(5′-fluoro-[2,2′-bipyrimidin]-4-yl)-5,6-dimethoxyisoindolin-1-one] |  | 39 |
| COc1cc2c(cc1OC)CN(c1ccnc(-c3ncccn3)n1)C(=O)C2 [Example 65, 2-([2,2′-Bipyrimidin]-4-yl)-6,7-dimethoxy-1,4-dihydroisoquinolin-3(2H)-one] | 5000 |  |
| COc1cc2c(cc1OC)C(CCC(F)(F)F)N(c1ccnc(-c3ncccn3)n1)C2=O (single isomer, unassigned) [Example 17, 2-([2,2′-Bipyrimidin]-4-yl)-5,6-dimethoxy-3-(3,3,3-trifluoropropyl)isoindolin-1-one] |  | 20 |
| CCC1c2cc(OC)c(OC)cc2C(=O)N1c1nc(-c2ncccn2)ncc1F (single isomer, unassigned) [Example 67, 3-Ethyl-2-(5-fluoro-[2,2′-bipyrimidin]-4-yl)-5,6-dimethoxyisoindolin-1-one] |  | 10000 |
| COc1cc2c(cc1OC)C(c1ccccn1)N(c1ccnc(-c3ncccn3)n1)C2=O (single isomer, unassigned) [Example 22, 2-([2,2′-Bipyrimidin]-4-yl)-5,6-dimethoxy-3-(pyridin-2-yl)isoindolin-1-one] |  | 4 |
| COc1cc2c(cc1OC)C(CCC(F)(F)F)N(c1ccnc(-c3ncccn3)n1)C2=O (single isomer, unassigned) [Example 16, 2-([2,2′-Bipyrimidin]-4-yl)-5,6-dimethoxy-3-(3,3,3-trifluoropropyl)isoindolin-1-one] |  | 30000 |
